Earlier results, collected in patent US9309575B2, “Mutant strains of Escherichia coli, a method of testing potential antibacterial agents using said strains as well as a testing kit” (Instytut Biologii Doswiadczalnej IM. M. Nenckiego Pan, priority 2010, dated 2016).

Test system: gram-negative bacteria
Details: at concentrations of 1-10 μg/ml

For polymyxin B nonapeptide [PMBN], the biocidal properties is given as “does not exhibit biocidal properties”.
